Patent publication US20090209568A1, “Spiro [Benzopyran] or Spiro [Benzofuran] Derivatives Which Inhibit the Sigma Receptor” (priority 2006, published 2009)

Key:
σ1-receptor = target: T1, σ1-receptor (Cavia porcellus, UniProt Q60492); assay: Sigma-1 receptor radioligand binding, [3H](+)pentazocine (Version A / Version B); set-up: species or system guinea pig; conditions: for % Binding σ1 10^−6 M: compound 10^−6 M; for % Binding σ1 10^−6 M / inhibition at 0.1 µM / inhibition at 0.01 µM: guinea pig brain membranes; for Ki: value in parentheses below the % binding, guinea pig brain; for inhibition at 0.1 µM: compound 10^−7 M; for inhibition at 0.01 µM: compound 10^−8 M
T1 construct: guinea pig brains were homogenized in 10 vols; (w/v) of Tris-HCl 50 mM 0.32 M sucrose; from tissue; host or cells: guinea pig brain membranes
T1 sequence (Q60492 whole entry): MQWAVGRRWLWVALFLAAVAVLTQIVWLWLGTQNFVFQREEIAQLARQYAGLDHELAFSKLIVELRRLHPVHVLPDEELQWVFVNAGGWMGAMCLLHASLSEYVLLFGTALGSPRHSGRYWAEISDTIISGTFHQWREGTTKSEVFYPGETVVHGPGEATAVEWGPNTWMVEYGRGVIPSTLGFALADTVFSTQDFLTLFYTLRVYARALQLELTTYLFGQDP
Experimental: Brain membrane preparation and binding assays for the σ1-receptor were performed as described (DeHaven-Hudkins et al., 1992) with some modifications. In brief, guinea pig brains were homogenized in 10 vols. (w/v) of Tris-HCl 50 mM 0.32 M sucrose, pH 7.4, with a Kinematica Polytron PT 3000 at 15000 r.p.m. for 30 s. The homogenate was centrifuged at 1000 g for 10 min at 4° C. and the supernatants collected and centrifuged again at 48000 g for 15 min at 4° C. The pellet was resuspended in 10 volumes of Tris-HCl buffer (50 mM, pH 7.4), incubated at 37° C. for 30 min, and centrifuged at 48000 g for 20 min at 4° C. Following this, the pellet was resuspended in fresh Tris-HCl buffer (50 mM, pH 7.4) and stored on ice until use.
Each assay tube contained 10 μL of [^3H](+)pentazocine (final concentration of 0.5 nM), 900 μL of the tissue suspension to a final assay volume of 1 mL and a final tissue concentration of approximately 30 mg tissue net weight/mL. Non-specific binding was defined by addition of a final concentration of 1 μM haloperidol. All tubes were incubated at 37° C. for 150 min before termination of the reaction by rapid filtration over Schleicher & Schuell GF 3362 glass fibre filters [previously soaked in a solution of 0.5% polyethylenimine for at least 1 h]. Filters were then washed with four times with 4 mL of cold Tris-HCl buffer (50 mM, pH 7.4). Following addition of scintillation cocktail, the samples were allowed to equilibrate overnight. The amount of bound radioactivity was determined by liquid scintillation spectrometry using a Wallac Winspectral 1414 liquid scintillation counter. Protein concentrations were determined by the method of Lowry et al. (1951).
In brief the σ1-receptor preparation was prepared from guinea pig brain. The brains were homogenized in 5 to 6 times of volume sucrose solution (0.32M) and homogenized. The homogenate was centrifuged at 2900 rpm, 4° C., 10 min). the supernatant was centrifuged again (23500×g, 4° C., 20 min). The pellet was resuspended in Tris-buffer, incubated for 30 min at room temperature and centrifuged f (23500×g, 4° C., 20 min). The pellet was resuspended in cold TRIS-buffer and homogenized. Then the protein content was measured (approx. 1.5 mg/mL) and the homogenate frozen at −80° C. for later use.
The radioligand used was [^3H]-(+)-Pentazocin in TRIS-buffer. In a volume of 200 μL 50 μL TRIS-buffer, 50 μL compound solution of varying concentration, 50 μL radioligand-solution (8 nM; resulting in 2 nM in the assay) and finally 50 μL of receptor preparation (approx. 1.5 mg/mL) were given into a well of a microplate equipped with a filter. The plate was closed and stirred for 2.5 h at 37° C. and 500 rpm. Following that the solvents were removed by a harvester through the filter. After rinsing with H2O the filter was measured in a scintillation counter ([^3H]-protocol).

σ2-receptor = assay: Sigma-2 receptor radioligand binding, [3H]-DTG (Version A / Version B); set-up: species or system mice (Version A, σ1 knockout brain) / rat (Version B, liver); conditions: compound 10^−6 M
Experimental: Binding studies for σ2-receptor were performed as described (Radesca et al., 1991) with some modifications. In brief, brains from sigma receptor type I (σ1) knockout mice were homogenized in a volume of 10 mL/g tissue net weight of ice-cold 10 mM Tris-HCl, pH 7.4, containing 320 mM sucrose (Tris-sucrose buffer) with a Potter-Elvehjem homogenizer (10 strokes at 500 r.p.m.) The homogenates were then centrifuged at 1000 g for 10 min at 4° C., and the supernatants were saved. The pellets were resuspended by vortexing in 2 mL/g ice-cold Tris-sucrose buffer and centrifuged again at 1000 g for 10 min. The combined 1000 g supernatants were centrifuged at 31000 g for 15 min at 4° C. The pellets were resuspended by vortexing in 3 mL/g 10 mM Tris-HCl, pH 7.4, and the suspension was kept at 25° C. for 15 min. Following centrifugation at 31000 g for 15 min, the pellets were resuspended by gentle Potter Elvehjem homogenization to a volume of 1.53 mL/g in 10 mM Tris-HCl pH 7.4.
The assay tubes contained 10 μL of [^3H]-DTG (final concentration of 3 nM), 400 μL of the tissue suspension (5.3 mL/g in 50 mM Tris-HCl, pH 8.0) to a final assay volume of 0.5 mL. Non-specific binding was defined by addition of a final concentration of 1 μM haloperidol. All tubes were incubated at 25° C. for 120 min before termination of the reaction by rapid filtration over Schleicher & Schuell GF 3362 glass fibre filters [previously soaked in a solution of 0.5% polyethylenimine for at least 1 h]. Filters were washed with three times with 5 mL volumes of cold Tris-HCl buffer (10 mM, pH 8.0). Following addition of scintillation cocktail samples were allowed to equilibrate overnight. The amount of bound radioactivity was determined by liquid scintillation spectrometry using a Wallac Winspectral 1414 liquid scintillation counter. Protein concentrations were determined by the method of Lowry et al. (1951).
In brief the σ2-Receptor preparation was prepared from rat liver. The livers were homogenized in 5 to 6 times of volume sucrose solution (0.32M) and homogenized. The homogenate was centrifuged at 2900 rpm, 4° C., 10 min). the supernatant was centrifuged again (31000×g, 4° C., 20 min). The pellet was resuspended in TRIS-buffer, incubated for 30 min at room temperature while stirring and centrifuged f (31000×g, 4° C., 20 min). The pellet was resuspended in cold TRIS-buffer pH 8 and homogenized. Then the protein content was measured (approx. 2 mg/mL) and the homogenate frozen at −80° C. for later use.
The radioligand used was [^3H]-Ditolylguanidin in TRIS-buffer pH 8. The σ1-receptor binding sites were masked through (+)-Pentazocin-solution in TRIS-Puffer pH 8.
In a volume of 200 μL 50 μL compound solution of varying concentration, 50 μL (+Pentazocin-solution (2 μM; resulting in 500 nM in the assay), 50 μL radioligand-solution (12 nM; resulting in 3 nM in the assay) and finally 50 μL of receptor preparation (approx. 2 mg/mL) were given into a well of a microplate equipped with a filter. The plate was closed and stirred for 2 h at room temperature and 500 rpm. Following that the solvents were removed by a harvester through the filter. After rinsing with H2O the filter was measured in a scintillation counter ([^3H]-protocol).

% Binding σ1 10^−6 M (σ1-receptor) | inhibition at 0.1 µM (σ1-receptor) [%] | inhibition at 0.01 µM (σ1-receptor) [%] | % Binding σ2 10^−6 M (σ2-receptor) [%] | Structure (SMILES) | other results
– | – | – | – | COC1Cc2ccccc2C2(CCCNC2)O1 (centres unmarked) | melting point: 54 to 58 °C
– | – | – | – | COC1OC2(CC[N+]3(CCCC3)CC2)c2ccccc21.[Br-] (centres unmarked) | melting point: 124 °C
96.2% | – | – | – | COC1Cc2ccccc2C2(CCN(Cc3ccccc3)C2)O1 (mixture of isomers) [Example 18, cis/trans-1′-Benzyl-3-methoxy-3,4-dihydrospiro[[2]benzopyran-1,3′-pyrrolidin]] | Ki (σ1-receptor): 70 nM
– | 89.5 | 32 | – | COC1Cc2ccccc2C2(CCN(CCc3ccccc3)C2)O1 (mixture of isomers) [Example 20, cis/trans-3-Methoxy-1′-(2-phenylethyl)-3,4-dihydrospiro[[2]benzopyran-1,3′-pyrrolidin]] | –
– | 67 | 32 | – | COC1Cc2ccccc2C2(CCN(CCCCc3ccccc3)C2)O1 (mixture of isomers) [Example 21, cis/trans-3-Methoxy-1′-(4-phenylbutyl)-3,4-dihydrospiro[[2]benzopyran-1,3′-pyrrolidin]] | –
– | 70.4 | 0.8 | – | CCCCCCCCN1CCC2(C1)OC(OC)Cc1ccccc12 (mixture of isomers) [Example 23, cis/trans-3-Methoxy-1′-octyl-3,4-dihydrospiro[[2]benzopyran-1,3′-pyrrolidin]] | –
– | 92.2 | 40.4 | – | COC1OC2(CCN(CCc3ccccc3)C2)c2ccccc21 (mixture of isomers) [Example 27, cis/trans-3-Methoxy-1′-(2-Phenylethyl)-3H-spiro[[2]benzofuran-1,3′-pyrrolidin]] | –
– | 80.4 | 27.4 | – | COC1OC2(CCN(CCCCc3ccccc3)C2)c2ccccc21 (mixture of isomers) [Example 28, cis/trans-3-Methoxy-1′-(4-Phenylbutyl)-3H-spiro[[2]benzofuran-1,3′-pyrrolidin]] | –
– | 68.9 | 45.6 | – | CCCCN1CCC2(C1)OC(OC)c1ccccc12 (mixture of isomers) [Example 29, cis/trans-1′-Butyl-3-methoxy-3H-spiro[[2]benzofuran-1,3′-pyrrolidin]] | –
– | 91.5 | 41.8 | – | CCCCCCCCN1CCC2(C1)OC(OC)c1ccccc12 (mixture of isomers) [Example 30, cis/trans-3-Methoxy-1′-octyl-3H-spiro[[2]benzofuran-1,3′-pyrrolidin]] | –
49^ % | – | – | 18.8 | CCCCN1CCC[C@]2(C1)O[C@H](OC)Cc1ccccc12 (racemic) [Example 11, trans-1′-Butyl-3-methoxy-3,4-dihydrospiro[[2]benzopyran-1,3′-piperidin]] | –
12.9% | – | – | 27.8 | CO[C@@H]1Cc2ccccc2[C@]2(CCCN(Cc3ccccc3)C2)O1 (relative stereo) [Example 2, trans-1′-Benzyl-3-methoxy-3,4-dihydrospiro[[2]benzopyran-1,3′-piperidin]] | –
38.8% | – | – | 32.2 | CO[C@@H]1Cc2ccccc2[C@@]2(CCCN(CCCc3ccccc3)C2)O1 (relative stereo) [Example 6, cis-3-Methoxy-1′-(3-phenylpropyl)-3,4-dihydrospiro[[2]benzopyran-1,3′-piperidin]] | –
14^ % | – | – | 54.3 | CO[C@@H]1Cc2ccccc2[C@]2(CCCN(CCCc3ccccc3)C2)O1 (relative stereo) [Example 7, trans-3-Methoxy-1′-(3-phenylpropyl)-3,4 dihydrospiro[[2]benzopyran-1,3′-piperidin]] | –
56^ % | – | – | 7.6 | CCCCN1CCC[C@@]2(C1)O[C@H](OC)Cc1ccccc12 (relative stereo) [Example 10, cis-1′-Butyl-3-methoxy-3,4-dihydrospiro[[2]benzopyran-1,3′-piperidin]] | –
27.6% | – | – | 56.3 | CCCCCCCCN1CCC[C@]2(C1)O[C@H](OC)Cc1ccccc12 (relative stereo) [Example 15, trans-3-Methoxy-1′-octyl-3,4-dihydrospiro[[2]benzopyran-1,3′-piperidin]] | –
– | 34 | – | – | CO[C@@H]1Cc2ccccc2[C@@]2(CCCN(Cc3ccccc3)C2)O1 [Example 1, cis-1′-Benzyl-3-methoxy-3,4-dihydrospiro[[2]benzopyran-1,3′-piperidin]] | –
46.3% | – | – | 45.4 | CCCCCCCCN1CCC[C@@]2(C1)O[C@H](OC)Cc1ccccc12 [Example 14, cis-3-Methoxy-1′-octyl-3,4-dihydrospiro[[2]bonzopyran-1,3′-piperidin]] | –

Structure (SMILES) | % Binding σ1 10^−6 M (σ1-receptor) | inhibition at 0.1 µM (σ1-receptor) [%] | inhibition at 0.01 µM (σ1-receptor) [%] | % Binding σ2 10^−6 M (σ2-receptor) [%] | other results
CCCCN1CCC2(CC1)OC(OC)Cc1ccccc12 (centres unmarked) [Example 36] | 100.8% | – | – | 39.7 | Ki (σ1-receptor): 2.3 nM
CCCCCCCCN1CCC2(CC1)OC(OC)Cc1ccccc12 (centres unmarked) [Example 37] | 103.9% | – | – | 72.6 | –
